This experiment deals with T1, human amylin 3(a) receptor (human calcitonin receptor + RAMP-3) in BHK570 cells (Homo sapiens, UniProt O60896+P30988).
T1 construct: expressed in transfected cells
Kind of experiment: ASSAY (II)a functional assay, human amylin receptor (CRE luciferase). In kind it is cell-based. Summed up:
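Cells were seeded and cultured overnight, then incubated with standard or sample for 3 h at 37° C in serum-containing medium at pH 7.4. The medium was then swapped for PBS, LucLite was added for 30 min at room temperature, and luminescence was recorded. Cells were BHK with CRE-luc and calcitonin receptor, ± RAMP-3.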

Where [1] appears, read: hCTR funct. EC50 divided by hAmylin-R funct. EC50.
The mark [2] stands for this setting: hCTR funct. EC50 over hAmylin-R funct. EC50.
Where [3] appears, read: human functional selectivity: hCTR funct. EC50 / hAmylin-R funct. EC50.

SMILES strings stand for the structures. Numbered stars: 1 amine (or outer) side, 2 acyl side, 3 side chain; on linkers, the order of the positions; unused ones are H or OH. Bridge positions count the residues as written; N and C are the ends. Side chains are listed from the residue outwards. Peptide text beside a SMILES is read from it. * marks the point of attachment. C20 diacid = O=C(O)CCCCCCCCCCCCCCCCCCC(=O)*; γGlu = O=C(O)[C@H](CCC(=O)[*:2])N[*:1]; AEEA = NCCOCCOCC(=O)O

T1 sequence (O60896 24-148): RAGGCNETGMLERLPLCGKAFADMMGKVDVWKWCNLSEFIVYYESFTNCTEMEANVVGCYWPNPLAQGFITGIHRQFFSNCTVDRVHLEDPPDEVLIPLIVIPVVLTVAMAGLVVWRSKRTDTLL
T1 sequence (P30988 25-474): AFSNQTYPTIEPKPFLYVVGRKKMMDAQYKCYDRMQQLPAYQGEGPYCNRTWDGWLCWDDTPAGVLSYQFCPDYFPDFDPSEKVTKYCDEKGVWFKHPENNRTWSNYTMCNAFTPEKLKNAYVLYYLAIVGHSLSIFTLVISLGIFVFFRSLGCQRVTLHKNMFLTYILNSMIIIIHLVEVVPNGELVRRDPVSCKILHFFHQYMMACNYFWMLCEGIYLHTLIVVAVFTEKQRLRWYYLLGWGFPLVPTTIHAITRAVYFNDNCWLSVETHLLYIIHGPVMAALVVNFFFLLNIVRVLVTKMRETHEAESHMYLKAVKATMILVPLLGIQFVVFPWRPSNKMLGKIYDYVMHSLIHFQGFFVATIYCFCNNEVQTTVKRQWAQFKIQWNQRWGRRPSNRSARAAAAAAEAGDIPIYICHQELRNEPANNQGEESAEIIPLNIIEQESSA

As for `CC[C@H](C)[C@H](NC(=O)[C@H](C)NC(=O)CNC(=O)[C@H](Cc1ccccc1)NC(=O)[C@H](CC(N)=O)NC(=O)[C@@H]1CCCN1C(=O)[C@H](CO)NC(=O)[C@H](CO)NC(=O)[C@H](Cc1c[nH]cn1)NC(=O)[C@H](CCCNC(=N)N)NC(=O)[C@H](CC(C)C)NC(=O)[C@H](Cc1ccccc1)NC(=O)[C@H](CC(N)=O)NC(=O)[C@H](C)NC(=O)[C@H](CC(C)C)NC(=O)[C@H](CCCNC(=N)N)NC(=O)[C@H](CCC(N)=O)NC(=O)[C@@H](NC(=O)[C@H](C)NC(=O)[C@@H]1CSSC[C@H](NC(=O)[C@@H](N)CCCCNC(=O)CC[C@H](NC(=O)CCCCCCCCCCCCCCC(=O)O)C(=O)O)C(=O)N[C@@H](CC(N)=O)C(=O)N[C@@H]([C@@H](C)O)C(=O)N[C@@H](C)C(=O)N[C@@H]([C@@H](C)O)C(=O)N1)[C@@H](C)O)C(=O)N1CCC[C@H]1C(=O)N[C@@H](CO)C(=O)N[C@@H](CO)C(=O)N[C@H](C(=O)N[C@@H](CC(N)=O)C(=O)N[C@H](C(=O)NCC(=O)N[C@@H](Cc1c[nH]cn1)C(=O)N[C@@H](CC(N)=O)C(=O)N[C@H](C(=O)N[C@@H](Cc1ccc(O)cc1)C(N)=O)[C@@H](C)O)C(C)C)[C@@H](C)O` [Example 111], the “Ratio hCT/hAmylin funct.” value runs as follows: under setting [1], 65.1; under setting [2], 65.1; under setting [3], 65.1.

As to `CC[C@H](C)[C@H](NC(=O)[C@H](C)NC(=O)CNC(=O)[C@H](Cc1ccccc1)NC(=O)[C@H](CC(N)=O)NC(=O)[C@@H]1CCCN1C(=O)[C@H](CO)NC(=O)[C@H](CO)NC(=O)[C@H](Cc1c[nH]cn1)NC(=O)[C@H](CCCNC(=N)N)NC(=O)[C@H](CC(C)C)NC(=O)[C@H](Cc1ccccc1)NC(=O)[C@H](CC(N)=O)NC(=O)[C@H](C)NC(=O)[C@H](CC(C)C)NC(=O)[C@H](CCCNC(=N)N)NC(=O)[C@H](CCC(N)=O)NC(=O)[C@@H](NC(=O)[C@H](C)NC(=O)[C@@H]1CSSC[C@H](NC(=O)[C@H](CCCCN)NC(=O)CC[C@H](NC(=O)CCCCCCCCCCCCCCCCCCC(=O)O)C(=O)O)C(=O)N[C@@H](CC(N)=O)C(=O)N[C@@H]([C@@H](C)O)C(=O)N[C@@H](C)C(=O)N[C@@H]([C@@H](C)O)C(=O)N1)[C@@H](C)O)C(=O)N1CCC[C@H]1C(=O)N[C@@H](CO)C(=O)N[C@@H](CO)C(=O)N[C@H](C(=O)N[C@@H](CC(N)=O)C(=O)N[C@H](C(=O)NCC(=O)N[C@@H](CO)C(=O)N[C@@H](CCCCN)C(=O)N[C@H](C(=O)N[C@@H](Cc1ccc(O)cc1)C(N)=O)[C@@H](C)O)C(C)C)[C@@H](C)O` [Example 34], the “Ratio hCT/hAmylin funct.” value is given as 8.4 under setting [1] and 8.4 under setting [3].

Turning to `CC[C@H](C)[C@H](NC(=O)[C@H](C)NC(=O)CNC(=O)[C@H](Cc1ccccc1)NC(=O)[C@H](CC(N)=O)NC(=O)[C@@H]1CCCN1C(=O)[C@H](CO)NC(=O)[C@H](CO)NC(=O)[C@H](Cc1c[nH]cn1)NC(=O)[C@H](CCCNC(=N)N)NC(=O)[C@H](CC(C)C)NC(=O)[C@H](Cc1ccccc1)NC(=O)[C@H](CC(N)=O)NC(=O)[C@H](C)NC(=O)[C@H](CC(C)C)NC(=O)[C@H](CCCNC(=N)N)NC(=O)[C@H](CCC(N)=O)NC(=O)[C@@H](NC(=O)[C@H](C)NC(=O)[C@@H]1CSSC[C@H](NC(=O)[C@H](CCCCN)NC(=O)COCCOCCNC(=O)COCCOCCNC(=O)CC[C@H](NC(=O)CCCCCCCCCCCCCCCCCCC(=O)O)C(=O)O)C(=O)N[C@@H](CC(N)=O)C(=O)N[C@@H]([C@@H](C)O)C(=O)N[C@@H](C)C(=O)N[C@@H]([C@@H](C)O)C(=O)N1)[C@@H](C)O)C(=O)N1CCC[C@H]1C(=O)N[C@@H](CO)C(=O)N[C@@H](CO)C(=O)N[C@H](C(=O)N[C@@H](CC(N)=O)C(=O)N[C@H](C(=O)NCC(=O)N[C@@H](CO)C(=O)N[C@@H](CC(N)=O)C(=O)N[C@H](C(=O)N[C@@H](Cc1ccc(O)cc1)C(N)=O)[C@@H](C)O)C(C)C)[C@@H](C)O` [Example 24], the “Ratio hCT/hAmylin funct.” value is, setting by setting: under setting [1], 23.1; under setting [2], 23.1; under setting [3], 23.1.

With `CC[C@H](C)[C@H](NC(=O)[C@H](C)NC(=O)CNC(=O)[C@H](Cc1ccccc1)NC(=O)[C@H](CC(N)=O)NC(=O)[C@@H]1CCCN1C(=O)[C@H](CO)NC(=O)[C@H](CO)NC(=O)[C@H](Cc1c[nH]cn1)NC(=O)[C@H](CCCNC(=N)N)NC(=O)[C@H](CC(C)C)NC(=O)[C@H](Cc1ccccc1)NC(=O)[C@H](Cc1c[nH]cn1)NC(=O)[C@H](C)NC(=O)[C@H](CC(C)C)NC(=O)[C@H](CCCNC(=N)N)NC(=O)[C@H](CCC(N)=O)NC(=O)[C@@H](NC(=O)[C@H](C)NC(=O)[C@@H]1CSSC[C@H](NC(=O)[C@@H](N)CCCCNC(=O)CC[C@H](NC(=O)CCCCCCCCCCCCCCCCCCC(=O)O)C(=O)O)C(=O)N[C@@H](CC(N)=O)C(=O)N[C@@H]([C@@H](C)O)C(=O)N[C@@H](C)C(=O)N[C@@H]([C@@H](C)O)C(=O)N1)[C@@H](C)O)C(=O)N1CCC[C@H]1C(=O)N[C@@H](CO)C(=O)N[C@@H](CO)C(=O)N[C@H](C(=O)N1CCC[C@H]1C(=O)N[C@H](C(=O)NCC(=O)N1CCC[C@H]1C(=O)N[C@@H](CC(N)=O)C(=O)N[C@H](C(=O)N[C@@H](Cc1ccc(O)cc1)C(N)=O)[C@@H](C)O)C(C)C)[C@@H](C)O` [Example 116] (H-K([γGlu-C20 diacid])CNTATCATQRLAHFLRHSSPNFGAIPSSTPVGPNTY-NH2; disulfide 2-7), the “Ratio hCT/hAmylin funct.” value reads like this: (hCTR funct. EC50 / hAmylin-R funct. EC50) 4.9; under setting [1], 4.9; under setting [3], 4.9.

Consider `CC[C@H](C)[C@H](NC(=O)[C@H](C)NC(=O)CNC(=O)[C@H](Cc1ccccc1)NC(=O)[C@H](CC(N)=O)NC(=O)[C@@H]1CCCN1C(=O)[C@H](CO)NC(=O)[C@H](CO)NC(=O)[C@H](Cc1c[nH]cn1)NC(=O)[C@H](CCCNC(=N)N)NC(=O)[C@H](CC(C)C)NC(=O)[C@H](Cc1ccccc1)NC(=O)[C@H](CC(N)=O)NC(=O)[C@H](C)NC(=O)[C@H](CC(C)C)NC(=O)[C@H](CCCNC(=N)N)NC(=O)[C@H](CCC(N)=O)NC(=O)[C@@H](NC(=O)[C@H](C)NC(=O)[C@@H]1CSSC[C@H](NC(=O)[C@H](CCCNC(=N)N)NC(=O)[C@@H](N)CCCCNC(=O)COCCOCCNC(=O)CC[C@H](NC(=O)CCCCCCCCCCCCCCCCCCC(=O)O)C(=O)O)C(=O)N[C@@H](CC(N)=O)C(=O)N[C@@H]([C@@H](C)O)C(=O)N[C@@H](C)C(=O)N[C@@H]([C@@H](C)O)C(=O)N1)[C@@H](C)O)C(=O)N1CCC[C@H]1C(=O)N[C@@H](CO)C(=O)N[C@@H](CO)C(=O)N[C@H](C(=O)N[C@@H](CC(N)=O)C(=O)N[C@H](C(=O)NCC(=O)N[C@@H](CO)C(=O)N[C@@H](Cc1c[nH]cn1)C(=O)N[C@H](C(=O)N[C@@H](Cc1ccc(O)cc1)C(N)=O)[C@@H](C)O)C(C)C)[C@@H](C)O` [Example 45] (H-K([AEEA-γGlu-C20 diacid])RCNTATCATQRLANFLRHSSPNFGAIPSSTNVGSHTY-NH2; disulfide 3-8 (inferred)), for which the “Ratio hCT/hAmylin funct.” value under setting [1] was determined as 17.0, the “Ratio hCT/hAmylin funct.” value under setting [2] came to 17.0 and the “Ratio hCT/hAmylin funct.” value under setting [3] is on record as 17.0.

Take `CC[C@H](C)[C@H](NC(=O)[C@H](C)NC(=O)CNC(=O)[C@H](Cc1ccccc1)NC(=O)[C@H](CC(N)=O)NC(=O)[C@@H]1CCCN1C(=O)[C@H](CO)NC(=O)[C@H](CO)NC(=O)[C@H](Cc1c[nH]cn1)NC(=O)[C@H](CCCNC(=N)N)NC(=O)[C@H](CC(C)C)NC(=O)[C@H](Cc1ccccc1)NC(=O)[C@H](CC(N)=O)NC(=O)[C@H](C)NC(=O)[C@H](CC(C)C)NC(=O)[C@H](CCCNC(=N)N)NC(=O)[C@H](CCC(N)=O)NC(=O)[C@@H](NC(=O)[C@H](C)NC(=O)[C@@H]1CSSC[C@H](NC(=O)[C@@H](N)CCCCNC(=O)COCCOCCNC(=O)COCCOCCNC(=O)CC[C@H](NC(=O)CCCCCCCCCCCCCCCCCCC(=O)O)C(=O)O)C(=O)N[C@@H](CC(N)=O)C(=O)N[C@@H]([C@@H](C)O)C(=O)N[C@@H](C)C(=O)N[C@@H]([C@@H](C)O)C(=O)N1)[C@@H](C)O)C(=O)N1CCC[C@H]1C(=O)N[C@@H](CO)C(=O)N[C@@H](CO)C(=O)N[C@H](C(=O)N[C@@H](CC(N)=O)C(=O)N[C@H](C(=O)NCC(=O)N[C@@H](CO)C(=O)N[C@@H](CCC(=O)O)C(=O)N[C@H](C(=O)N[C@@H](Cc1ccc(O)cc1)C(N)=O)[C@@H](C)O)C(C)C)[C@@H](C)O` [Example 25]: the “Ratio hCT/hAmylin funct.” value was found to be 46.2 under setting [1], 46.2 under setting [2] and 46.2 under setting [3].

As for `CC[C@H](C)[C@H](NC(=O)[C@H](C)NC(=O)CNC(=O)[C@H](Cc1ccccc1)NC(=O)[C@H](CC(N)=O)NC(=O)[C@@H]1CCCN1C(=O)[C@H](CO)NC(=O)[C@H](CO)NC(=O)[C@H](Cc1c[nH]cn1)NC(=O)[C@H](CCCNC(=N)N)NC(=O)[C@H](CC(C)C)NC(=O)[C@H](Cc1ccccc1)NC(=O)[C@H](CC(N)=O)NC(=O)[C@H](C)NC(=O)[C@H](CC(C)C)NC(=O)[C@H](CCCNC(=N)N)NC(=O)[C@H](CCC(N)=O)NC(=O)[C@@H](NC(=O)[C@H](C)NC(=O)[C@@H]1CSSC[C@H](NC(=O)[C@H](CCCNC(=N)N)NC(=O)CNC(=O)CC[C@H](NC(=O)CCCCCCCCCCCCCCCCCCC(=O)O)C(=O)O)C(=O)N[C@@H](CC(N)=O)C(=O)N[C@@H]([C@@H](C)O)C(=O)N[C@@H](C)C(=O)N[C@@H]([C@@H](C)O)C(=O)N1)[C@@H](C)O)C(=O)N1CCC[C@H]1C(=O)N[C@@H](CO)C(=O)N[C@@H](CO)C(=O)N[C@H](C(=O)N[C@@H](CC(N)=O)C(=O)N[C@H](C(=O)NCC(=O)N[C@@H](CO)C(=O)N[C@@H](Cc1c[nH]cn1)C(=O)N[C@H](C(=O)N[C@@H](Cc1ccc(O)cc1)C(N)=O)[C@@H](C)O)C(C)C)[C@@H](C)O` [Example 47] ({C20 diacid-γGlu}-GRCNTATCATQRLANFLRHSSPNFGAIPSSTNVGSHTY-NH2; disulfide 3-8), the “Ratio hCT/hAmylin funct.” value runs as follows: under setting [1], 6.0; under setting [2], 6.0; under setting [3], 6.0.
